Values quoted from earlier work, collected in patent US20240173373A1, “NOVEL METHOD FOR THE PRODUCTION OF CONCENTRATED ALOE VERA COMPOSITIONS AND THERAPEUTIC USES FOR THE SAME” (Desert Harvest, Inc., priority 2021, published 2024).

Tested on: scald hyperalgesia
Conditions: compared with phenylbutazone

In the case of “O-acetylated-D-mannan [O-acetylated-D-mannan (T-2-HN)]”, the “inhibitory effect on scald hyperalgesia” value is given as “more marked inhibitory effect on scald hyperalgesia than phenylbutazone”.
